Source: patent publication US7517874B2 (priority 2007, dated 2009)
Where two headings read alike, the source gives them in different places.

Legend:
[1] = molecular target: T1, rat CB2 receptor (rCB2) (Rattus norvegicus, UniProt Q9QZN9); assay: cell-based; format: cell-based; conditions: for +/− RCB2: agonist or inverse agonist at rCB2
T1 sequence (Q9QZN9 1-360): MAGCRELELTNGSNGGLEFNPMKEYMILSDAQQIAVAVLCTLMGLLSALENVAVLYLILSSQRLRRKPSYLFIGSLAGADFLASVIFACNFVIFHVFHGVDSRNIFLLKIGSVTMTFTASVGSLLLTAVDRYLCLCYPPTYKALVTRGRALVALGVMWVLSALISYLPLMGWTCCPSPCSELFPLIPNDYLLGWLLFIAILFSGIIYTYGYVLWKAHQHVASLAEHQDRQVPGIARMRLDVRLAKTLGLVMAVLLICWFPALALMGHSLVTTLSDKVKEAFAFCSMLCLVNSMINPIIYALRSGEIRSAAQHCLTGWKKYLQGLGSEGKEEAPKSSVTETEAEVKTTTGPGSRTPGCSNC
Outline: (§1)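 Agonism or inverse agonism was assessed as change in intracellular cAMP in CHO-K1 cells expressing human CB1 or rat CB2 (genomic DNA, pcDNA3.1).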

[2] = molecular target: human CB1 receptor (hCB1) (Homo sapiens, UniProt P21554); assay: cell-based; format: cell-based
human CB1 receptor (hCB1), sequence (P21554 whole entry): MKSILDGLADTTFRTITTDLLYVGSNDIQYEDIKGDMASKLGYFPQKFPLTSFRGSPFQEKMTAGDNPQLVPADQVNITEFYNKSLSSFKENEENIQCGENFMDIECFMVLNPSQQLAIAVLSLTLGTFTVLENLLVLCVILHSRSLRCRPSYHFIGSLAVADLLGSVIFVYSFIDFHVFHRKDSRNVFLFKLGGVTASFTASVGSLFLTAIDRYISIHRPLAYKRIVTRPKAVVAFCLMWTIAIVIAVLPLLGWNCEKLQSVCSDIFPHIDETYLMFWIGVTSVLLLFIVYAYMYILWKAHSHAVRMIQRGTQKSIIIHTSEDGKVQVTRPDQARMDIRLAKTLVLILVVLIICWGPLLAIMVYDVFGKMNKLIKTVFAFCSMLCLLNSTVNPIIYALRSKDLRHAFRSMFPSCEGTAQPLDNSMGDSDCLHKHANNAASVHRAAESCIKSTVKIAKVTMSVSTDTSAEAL
Outline: as §1

[3] = groups >100 nM-10 μM and >10 μM, cAMP, CHO-K1 hCB1, read-out: EC50 HCB1
[4] = groups >100 nM-10 μM and >10 μM, cAMP, CHO-K1 rCB2, read-out: EC50 RCB2

CN1CCn2c(-c3ccc(Cl)cc3F)nc(C(=O)N3CCC(n4c(=O)[nH]c5ccccc54)CC3)c2C1 [Compound 215, 1-(1-(3-(4-chloro-2-fluorophenyl)-7-methyl-5,6,7,8-tetrahydroimidazo[1,5-a]pyrazine-1-carbonyl)piperidin-4-yl)-1H-benzo[d]imidazol-2(3H)-one]
+/− RCB2 [1]: −
EC50 [2, 3]: > 10000 nM

CNC(=O)c1cccc(NC(=O)c2nc(-c3ccc(Cl)cc3F)n3c2CN(C)CC3)c1 [Compound 216, 3-(4-chloro-2-fluorophenyl)-7-methyl-N-(3-(methylcarbamoyl)phenyl)-5,6,7,8-tetrahydroimidazo[1,5-a]pyrazine-1-carboxamide]
+/− RCB2 [1]: −
EC50 [2, 3]: > 10000 nM

CNC(=O)c1ccccc1NC(=O)c1nc(-c2ccc(Cl)cc2F)n2c1CN(C)CC2 [Compound 217]
EC50 [1, 4]: > 10000 nM
EC50 [2, 3]: > 10000 nM

CNC(=O)c1ccc(NC(=O)c2nc(-c3ccc(Cl)cc3F)n3c2CN(C)CC3)cc1 [Compound 218]
EC50 [1, 4]: > 10000 nM
EC50 [2, 3]: > 10000 nM

CN1CCn2c(-c3ccc(Cl)cc3F)nc(C(=O)Nc3ccc(S(=O)(=O)N4CCOCC4)cc3)c2C1 [Compound 219]
+/− RCB2 [1]: −
EC50 [2, 3]: > 10000 nM

CN1CCn2c(-c3ccc(Cl)cc3F)nc(C(=O)N3CCC4(CCN(C)C4=O)CC3)c2C1 [Compound 221, 8-(3-(4-chloro-2-fluorophenyl)-7-methyl-5,6,7,8-tetrahydroimidazo[1,5-a]pyrazine-1-carbonyl)-2-methyl-2,8-diazaspiro[4.5]decan-1-one]
EC50 [1]: > 10000 nM
EC50 [2]: > 10000 nM

CN1CCn2c(-c3ccc(Cl)cc3F)nc(C(=O)N3CCC(N4C(=O)Cc5ccccc54)CC3)c2C1 [Compound 222, 1-(1-(3-(4-chloro-2-fluorophenyl)-7-methyl-5,6,7,8-tetrahydroimidazo[1,5-a]pyrazine-1-carbonyl)piperidin-4-yl)indolin-2-one]
EC50 [1]: > 10000 nM
EC50 [2]: > 10000 nM

Cc1nnc(C)n1C1CCN(C(=O)c2nc(-c3ccc(Cl)cc3F)n3c2CN(C)CC3)CC1 [Compound 223, (3-(4-chloro-2-fluorophenyl)-7-methyl-5,6,7,8-tetrahydroimidazo[1,5-a]pyrazin-1-yl)(4-(3,5-dimethyl-4H-1,2,4-triazol-4-yl)piperidin-1-yl)methanone]
EC50 [1]: > 10000 nM
EC50 [2]: > 10000 nM

COC(=O)c1cccc(CNC(=O)c2nc(-c3ccc(Cl)cc3F)n3c2CN(C)CC3)c1 [Compound 224, methyl 3-((3-(4-chloro-2-fluorophenyl)-7-methyl-5,6,7,8-tetrahydroimidazo[1,5-a]pyrazine-1-carboxamido)methyl)benzoate]
+/− RCB2 [1]: −
EC50 [2, 3]: > 10000 nM

CN1CCn2c(-c3ccc(Cl)cc3F)nc(C(=O)N3CCC(C(N)=O)(N4CCOCC4)CC3)c2C1 [Compound 225]
EC50 [1]: > 10000 nM
EC50 [2]: > 10000 nM

CN1CCn2c(-c3ccc(Cl)cc3F)nc(C(=O)N3CCC(C(=O)N4CCOCC4)CC3)c2C1 [Compound 226, (3-(4-chloro-2-fluorophenyl)-7-methyl-5,6,7,8-tetrahydroimidazo[1,5-a]pyrazin-1-yl)(4-(morpholine-4-carbonyl)piperidin-1-yl)methanone]
EC50 [1]: > 10000 nM
EC50 [2]: > 10000 nM

CN1CCn2c(-c3ccc(Cl)cc3F)nc(C(=O)N3CCC(n4cc(-c5ccccc5)[nH]c4=O)CC3)c2C1 [Compound 227, 1-(1-(3-(4-chloro-2-fluorophenyl)-7-methyl-5,6,7,8-tetrahydroimidazo[1,5-a]pyrazine-1-carbonyl)piperidin-4-yl)-4-phenyl-1H-imidazol-2(3H)-one]
+/− RCB2 [1]: −
EC50 [2, 3]: > 10000 nM

CN1CCn2c(-c3ccc(Cl)cc3F)nc(C(=O)NCc3ccc4[nH]c(=O)[nH]c4c3)c2C1 [Compound 228, 3-(4-chloro-2-fluorophenyl)-7-methyl-N-((2-oxo-2,3-dihydro-1H-benzo[d]imidazol-5-yl)methyl)-5,6,7,8-tetrahydroimidazo[1,5-a]pyrazine-1-carboxamide]
+/− RCB2 [1]: −
EC50 [2, 3]: > 10000 nM

CN1CCn2c(-c3ccccc3)nc(C(=O)NCCCO)c2C1 [Compound 229, N-(3-hydroxypropyl)-7-methyl-3-phenyl-5,6,7,8-tetrahydroimidazo[1,5-a]pyrazine-1-carboxamide]
EC50 [1]: > 10000 nM
EC50 [2]: > 10000 nM

CN1CCn2c(-c3ccccc3)nc(C(=O)NC(C)(C)CO)c2C1 [Compound 230, N-(1-hydroxy-2-methylpropan-2-yl)-7-methyl-3-phenyl-5,6,7,8-tetrahydroimidazo[1,5-a]pyrazine-1-carboxamide]
EC50 [1, 4]: > 10000 nM
EC50 [2, 3]: > 10000 nM

CC(CO)NC(=O)c1nc(-c2ccccc2)n2c1CN(C)CC2 (stereo not shown) [Compound 231, N-(1-hydroxypropan-2-yl)-7-methyl-3-phenyl-5,6,7,8-tetrahydroimidazo[1,5-a]pyrazine-1-carboxamide]
EC50 [1, 4]: > 10000 nM
EC50 [2, 3]: > 10000 nM

CCC(CO)NC(=O)c1nc(-c2ccccc2)n2c1CN(C)CC2 (stereo not shown) [Compound 232, N-(1-hydroxybutan-2-yl)-7-methyl-3-phenyl-5,6,7,8-tetrahydroimidazo[1,5-a]pyrazine-1-carboxamide]
EC50 [1]: > 10000 nM
EC50 [2]: > 10000 nM

CCCC(CO)NC(=O)c1nc(-c2ccccc2)n2c1CN(C)CC2 (stereo not shown) [Compound 233, N-(1-hydroxypentan-2-yl)-7-methyl-3-phenyl-5,6,7,8-tetrahydroimidazo[1,5-a]pyrazine-1-carboxamide]
EC50 [1]: > 10000 nM
EC50 [2]: > 10000 nM

CN1CCn2c(-c3ccccc3)nc(C(=O)NCC3OCCO3)c2C1 [Compound 234, N-((1,3-dioxolan-2-yl)methyl)-7-methyl-3-phenyl-5,6,7,8-tetrahydroimidazo[1,5-a]pyrazine-1-carboxamide]
+/− RCB2 [1]: +
EC50 [2]: > 10000 nM

CN1CCn2c(-c3ccccc3)nc(C(=O)NC3(CO)CCCC3)c2C1 [Compound 235, N-(1-(hydroxymethyl)cyclopentyl)-7-methyl-3-phenyl-5,6,7,8-tetrahydroimidazo[1,5-a]pyrazine-1-carboxamide]
EC50 [1]: > 10000 nM
EC50 [2]: > 10000 nM

CN1CCn2c(-c3ccccc3)nc(C(=O)NCC3CCOCC3)c2C1 [Compound 236, 7-methyl-3-phenyl-N-((tetrahydro-2H-pyran-4-yl)methyl)-5,6,7,8-tetrahydroimidazo[1,5-a]pyrazine-1-carboxamide]
EC50 [1]: > 10000 nM
EC50 [2]: > 10000 nM

Cc1cnc(CNC(=O)c2nc(-c3ccccc3)n3c2CN(C)CC3)cn1 [Compound 237, 7-methyl-N-((5-methylpyrazin-2-yl)methyl)-3-phenyl-5,6,7,8-tetrahydroimidazo[1,5-a]pyrazine-1-carboxamide]
EC50 [1]: > 10000 nM
EC50 [2]: > 10000 nM

CNC(=O)[C@@H](NC(=O)c1nc(C2=CCCC2)n2c1CN(C)CC2)C(C)(C)C [Compound 238, (S)-3-cyclopentenyl-N-(3,3-dimethyl-1-(methylamino)-1-oxobutan-2-yl)-7-methyl-5,6,7,8-tetrahydroimidazo[1,5-a]pyrazine-1-carboxamide]
EC50 [1]: > 10000 nM
+/− HCB1 ([2]; agonist or inverse agonist at hCB1): +

CNC(=O)[C@@H](NC(=O)c1nc(-c2cncnc2)n2c1CN(C)CC2)C(C)(C)C [Compound 239, (S)-N-(3,3-dimethyl-1-(methylamino)-1-oxobutan-2-yl)-7-methyl-3-(pyrimidin-5-yl)-5,6,7,8-tetrahydroimidazo[1,5-a]pyrazine-1-carboxamide]
EC50 [1, 4]: > 10000 nM
EC50 [2, 3]: > 10000 nM

CNC(=O)[C@@H](NC(=O)c1nc(-c2ccc(C)c(F)c2)n2c1CN(C)CC2)C(C)(C)C [Compound 240, (S)-N-(3,3-dimethyl-1-(methylamino)-1-oxobutan-2-yl)-3-(3-fluoro-4-methylphenyl)-7-methyl-5,6,7,8-tetrahydroimidazo[1,5-a]pyrazine-1-carboxamide]
+/− RCB2 [1]: −
EC50 [2]: > 10000 nM

CNC(=O)[C@@H](NC(=O)c1nc(-c2ccc(Cl)cc2F)n2c1CN(C)CC2)C(C)(C)C [Compound 241, (S)-3-(4-chloro-2-fluorophenyl)-N-(3,3-dimethyl-1-(methylamino)-1-oxobutan-2-yl)-7-methyl-5,6,7,8-tetrahydroimidazo[1,5-a]pyrazine-1-carboxamide]
+/− RCB2 [1]: −
EC50 [2]: > 10000 nM

CNC(=O)[C@@H](NC(=O)c1nc(-c2cccc3cccnc23)n2c1CN(C)CC2)C(C)(C)C [Compound 242, (S)-N-(3,3-dimethyl-1-(methylamino)-1-oxobutan-2-yl)-7-methyl-3-(quinolin-8-yl)-5,6,7,8-tetrahydroimidazo[1,5-a]pyrazine-1-carboxamide]
+/− RCB2 [1]: −
EC50 [2]: > 10000 nM

C/C=C/c1nc(C(=O)N[C@H](C(=O)NC)C(C)(C)C)c2n1CCN(C)C2 [Compound 243, (S,E)-N-(3,3-dimethyl-1-(methylamino)-1-oxobutan-2-yl)-7-methyl-3-(prop-1-enyl)-5,6,7,8-tetrahydroimidazo[1,5-a]pyrazine-1-carboxamide]
+/− RCB2 [1]: +
EC50 [2]: > 10000 nM

CNC(=O)[C@@H](NC(=O)c1nc(-c2cccc(F)c2)n2c1CN(C)CC2)C(C)(C)C [Compound 244, (S)-N-(3,3-dimethyl-1-(methylamino)-1-oxobutan-2-yl)-3-(3-fluorophenyl)-7-methyl-5,6,7,8-tetrahydroimidazo[1,5-a]pyrazine-1-carboxamide]
+/− RCB2 [1]: +
EC50 [2]: > 10000 nM
